# Values quoted from earlier work in patent US20080274215A1, “COMPOSITION FOR TREATMENT OF COLD AND FLU” (NORTHERN HOLDINGS INC., priority 2007, published 2008).
structure (smiles),measurement,value
"C=C1CCC2C(C)(CO)C(O)CCC2(C)C1C/C=C1/C(=O)OCC1O (stereo not shown) [AG, 3-[2-[decahydro-6-hydroxy-5-(hydroxymethyl)-5,8a-dimethyl-2-methylene-1-napthalenyl]ethylidene]dihydro-4-hydroxy-2(3H)-furanone]",solubility in water,sparingly soluble
